Source: patent publication US6737383B1, “Herbicidal oxadiazolidines” (priority 1999, dated 2004)

How the values were obtained:
[1] = tested on: corn; assay: Test B pre/postemergence corn; type: in vivo, Zea mays; details: for Corn plant response rating: scale of 0 to 10 where 0 is no effect and 10 is complete control
Procedure, shortened: (§1)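 Herbicidal effect was estimated by eye on a ten-point control scale after plants spent twelve to sixteen days in a greenhouse following soil or foliar treatment. Foliar sprays targeted plants at one to four leaves; all doses were formulated in a non-phytotoxic solvent with surfactant.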

[2] = tested on: cocklebur; assay: Test B pre/postemergence cocklebur; type: in vivo, Xanthium strumarium; details: for Cocklebur plant response rating: scale of 0 to 10 where 0 is no effect and 10 is complete control
Procedure, shortened: as §1

[3] = tested on: purple nutsedge; assay: Test B pre/postemergence purple nutsedge; type: in vivo, Cyperus rotundus; details: for Nutsedge plant response rating: scale of 0 to 10 where 0 is no effect and 10 is complete control
Procedure, shortened: as §1

[4] = tested on: rape; assay: Test B pre/postemergence rape; type: in vivo, Brassica napus; details: for Rape plant response rating: scale of 0 to 10 where 0 is no effect and 10 is complete control
Procedure, shortened: as §1

[5] = tested on: morningglory; assay: Test B pre/postemergence morningglory; type: in vivo, Ipomoea hederacea; details: for Morningglory plant response rating: scale of 0 to 10 where 0 is no effect and 10 is complete control
Procedure, shortened: as §1

[6] = tested on: blackgrass; assay: Test B pre/postemergence blackgrass; type: in vivo, Alopecurus myosuroides; details: for Blackgrass plant response rating: scale of 0 to 10 where 0 is no effect and 10 is complete control
Procedure, shortened: as §1

[7] = tested on: bedstraw; assay: Test B pre/postemergence bedstraw; type: in vivo, Galium aparine; details: for Bedstraw plant response rating: scale of 0 to 10 where 0 is no effect and 10 is complete control
Procedure, shortened: as §1

[8] = tested on: giant foxtail; assay: Test B pre/postemergence giant foxtail; type: in vivo, Setaria faberii; details: for Giant foxtail plant response rating: scale of 0 to 10 where 0 is no effect and 10 is complete control
Procedure, shortened: as §1

[9] = tested on: soybean; assay: Test B pre/postemergence soybean; type: in vivo, Glycine max; details: for Soybean plant response rating: scale of 0 to 10 where 0 is no effect and 10 is complete control
Procedure, shortened: as §1

[10] = tested on: crabgrass; assay: Test B pre/postemergence crabgrass; type: in vivo, Digitaria sanguinalis; details: for Crabgrass plant response rating: scale of 0 to 10 where 0 is no effect and 10 is complete control
Procedure, shortened: as §1

[11] = tested on: wheat; assay: Test B pre/postemergence wheat; type: in vivo, Triticum aestivum; details: for Wheat plant response rating: scale of 0 to 10 where 0 is no effect and 10 is complete control
Procedure, shortened: as §1

[12] = tested on: sugar beet; assay: Test B pre/postemergence sugar beet; type: in vivo, Beta vulgaris; details: for Sugarbeets plant response rating: scale of 0 to 10 where 0 is no effect and 10 is complete control
Procedure, shortened: as §1

[13] = tested on: wild oat; assay: Test B pre/postemergence wild oat; type: in vivo, Avena fatua; details: for Wild oats plant response rating: scale of 0 to 10 where 0 is no effect and 10 is complete control
Procedure, shortened: as §1

[14] = tested on: pigweed; assay: Test B pre/postemergence pigweed; type: in vivo, Amaranthus retroflexus; details: for Redroot pigweed plant response rating: scale of 0 to 10 where 0 is no effect and 10 is complete control
Procedure, shortened: as §1

[15] = tested on: velvetleaf; assay: Test B pre/postemergence velvetleaf; type: in vivo, Abutilon theophrasti; details: for Velvetleaf plant response rating: scale of 0 to 10 where 0 is no effect and 10 is complete control
Procedure, shortened: as §1

[16] = tested on: surinam grass; assay: Test B pre/postemergence surinam grass; type: in vivo, Brachiaria decumbens; details: for B. signalgrass plant response rating: scale of 0 to 10 where 0 is no effect and 10 is complete control
Procedure, shortened: as §1

[17] = Postemergence, Rate 125 g/ha, scale 0 to 10, 0 is no effect, 10 is complete control
[18] = Postemergence, Rate 250 g/ha, scale 0 to 10, 0 is no effect, 10 is complete control
[19] = Preemergence, Rate 62 g/ha, scale 0 to 10 (0 no effect, 10 complete control)
[20] = Rate 500 g/ha, Postemergence, scale 0 to 10, 0 no effect, 10 complete control

CC(C)N(C(=O)n1oc(=O)n(C2(C)CC2)c1=O)c1ccc(F)cc1F [Compound 363]
Plant response rating, Corn [1, 17]: 0 | Plant response rating, Corn [1, 18]: 2 | Plant response rating, Corn [1, 19]: 0 | Corn plant response rating (0 to 10 scale) ([1]; Preemergence, Rate 125 g/ha): 0 | Corn plant response rating ([1]; Preemergence, Rate 250 g/ha): 3 | Corn plant response rating ([1]; Preemergence, Rate 500 g/ha): 7 | Corn plant response rating ([1]; Rate 62 g/ha, Postemergence): 0 | Plant response rating, Corn [1, 20]: 6 | Plant response rating, Cocklebur [2, 17]: 0 | Plant response rating, Cocklebur [2, 18]: 2 | Plant response rating, Cocklebur [2, 19]: 0 | Cocklebur plant response rating (0 to 10 scale) ([2]; Preemergence, Rate 125 g/ha): 0 | Cocklebur plant response rating ([2]; Preemergence, Rate 250 g/ha): 0 | Cocklebur plant response rating ([2]; Preemergence, Rate 500 g/ha): 0 | Cocklebur plant response rating ([2]; Rate 62 g/ha, Postemergence): 0 | Plant response rating, Cocklebur [2, 20]: 2 | Plant response rating, Nutsedge [3, 17]: 0 | Plant response rating, Nutsedge [3, 18]: 0 | Plant response rating, Nutsedge [3, 19]: 0 | Nutsedge plant response rating (0 to 10 scale) ([3]; Preemergence, Rate 125 g/ha): 0 | Nutsedge plant response rating ([3]; Preemergence, Rate 250 g/ha): 0 | Nutsedge plant response rating ([3]; Preemergence, Rate 500 g/ha): 2 | Nutsedge plant response rating ([3]; Rate 62 g/ha, Postemergence): 0 | Plant response rating, Nutsedge [3, 20]: 0 | Plant response rating, Rape [4, 17]: 0 | Plant response rating, Rape [4, 18]: 0 | Plant response rating, Rape [4, 19]: 0 | Rape plant response rating (0 to 10 scale) ([4]; Preemergence, Rate 125 g/ha): 1 | Rape plant response rating ([4]; Preemergence, Rate 250 g/ha): 3 | Rape plant response rating ([4]; Preemergence, Rate 500 g/ha): 5 | Rape plant response rating ([4]; Rate 62 g/ha, Postemergence): 0 | Plant response rating, Rape [4, 20]: 2 | Plant response rating, Morningglory [5, 17]: 1 | Plant response rating, Morningglory [5, 18]: 1 | Plant response rating, Morningglory [5, 19]: 0 | Morningglory plant response rating (0 to 10 scale) ([5]; Preemergence, Rate 125 g/ha): 0 | Morningglory plant response rating ([5]; Preemergence, Rate 250 g/ha): 5 | Morningglory plant response rating ([5]; Preemergence, Rate 500 g/ha): 6 | Morningglory plant response rating ([5]; Rate 62 g/ha, Postemergence): 1 | Plant response rating, Morningglory [5, 20]: 3 | Plant response rating, Blackgrass [6, 17]: 7 | Plant response rating, Blackgrass [6, 18]: 7 | Plant response rating, Blackgrass [6, 19]: 8 | Blackgrass plant response rating (0 to 10 scale) ([6]; Preemergence, Rate 125 g/ha): 10 | Blackgrass plant response rating ([6]; Preemergence, Rate 250 g/ha): 10 | Blackgrass plant response rating ([6]; Preemergence, Rate 500 g/ha): 10 | Blackgrass plant response rating ([6]; Rate 62 g/ha, Postemergence): 5 | Plant response rating, Blackgrass [6, 20]: 8 | Plant response rating, Bedstraw [7, 17]: 4 | Plant response rating, Bedstraw [7, 18]: 7 | Plant response rating, Bedstraw [7, 19]: 9 | Bedstraw plant response rating (0 to 10 scale) ([7]; Preemergence, Rate 125 g/ha): 9 | Bedstraw plant response rating ([7]; Preemergence, Rate 250 g/ha): 10 | Bedstraw plant response rating ([7]; Preemergence, Rate 500 g/ha): 10 | Bedstraw plant response rating ([7]; Rate 62 g/ha, Postemergence): 4 | Plant response rating, Bedstraw [7, 20]: 9 | Plant response rating, Giant foxtail [8, 17]: 4 | Plant response rating, Giant foxtail [8, 18]: 9 | Giant foxtail plant response rating (0 to 10 scale) ([8]; Preemergence, Rate 125 g/ha): 10 | Giant foxtail plant response rating ([8]; Preemergence, Rate 250 g/ha): 10 | Giant foxtail plant response rating ([8]; Preemergence, Rate 500 g/ha): 10 | Giant foxtail plant response rating ([8]; Rate 62 g/ha, Postemergence): 4 | Plant response rating, Giant foxtail [8, 20]: 9 | Plant response rating, Soybean [9, 17]: 5 | Plant response rating, Soybean [9, 18]: 6 | Plant response rating, Soybean [9, 19]: 0 | Soybean plant response rating (0 to 10 scale) ([9]; Preemergence, Rate 125 g/ha): 0 | Soybean plant response rating ([9]; Preemergence, Rate 250 g/ha): 0 | Soybean plant response rating ([9]; Preemergence, Rate 500 g/ha): 0 | Soybean plant response rating ([9]; Rate 62 g/ha, Postemergence): 4 | Plant response rating, Soybean [9, 20]: 7 | Plant response rating, Crabgrass [10, 17]: 2 | Plant response rating, Crabgrass [10, 18]: 5 | Plant response rating, Crabgrass [10, 19]: 3 | Crabgrass plant response rating (0 to 10 scale) ([10]; Preemergence, Rate 125 g/ha): 7 | Crabgrass plant response rating ([10]; Preemergence, Rate 250 g/ha): 7 | Crabgrass plant response rating ([10]; Preemergence, Rate 500 g/ha): 9 | Crabgrass plant response rating ([10]; Rate 62 g/ha, Postemergence): 1 | Plant response rating, Crabgrass [10, 20]: 9 | Plant response rating, Wheat [11, 17]: 4 | Plant response rating, Wheat [11, 18]: 5 | Plant response rating, Wheat [11, 19]: 3 | Wheat plant response rating (0 to 10 scale) ([11]; Preemergence, Rate 125 g/ha): 5 | Wheat plant response rating ([11]; Preemergence, Rate 250 g/ha): 6 | Wheat plant response rating ([11]; Preemergence, Rate 500 g/ha): 7 | Wheat plant response rating ([11]; Rate 62 g/ha, Postemergence): 0 | Plant response rating, Wheat [11, 20]: 6 | Plant response rating, Sugarbeets [12, 17]: 1 | Plant response rating, Sugarbeets [12, 18]: 3 | Plant response rating, Sugarbeets [12, 19]: 0 | Sugarbeets plant response rating (0 to 10 scale) ([12]; Preemergence, Rate 125 g/ha): 4 | Sugarbeets plant response rating ([12]; Preemergence, Rate 250 g/ha): 7 | Sugarbeets plant response rating ([12]; Preemergence, Rate 500 g/ha): 8 | Sugarbeets plant response rating ([12]; Rate 62 g/ha, Postemergence): 0 | Plant response rating, Sugarbeets [12, 20]: 3 | Plant response rating, Wild oats [13, 17]: 0 | Plant response rating, Wild oats [13, 18]: 1 | Plant response rating, Wild oats [13, 19]: 5 | Wild oats plant response rating (0 to 10 scale) ([13]; Preemergence, Rate 125 g/ha): 9 | Wild oats plant response rating ([13]; Preemergence, Rate 250 g/ha): 10 | Wild oats plant response rating ([13]; Preemergence, Rate 500 g/ha): 10 | Wild oats plant response rating ([13]; Rate 62 g/ha, Postemergence): 0 | Plant response rating, Wild oats [13, 20]: 7 | Plant response rating, Redroot pigweed [14, 17]: 0 | Plant response rating, Redroot pigweed [14, 18]: 2 | Plant response rating, Redroot pigweed [14, 19]: 2 | Redroot pigweed plant response rating (0 to 10 scale) ([14]; Preemergence, Rate 125 g/ha): 3 | Redroot pigweed plant response rating ([14]; Preemergence, Rate 250 g/ha): 7 | Redroot pigweed plant response rating ([14]; Preemergence, Rate 500 g/ha): 10 | Redroot pigweed plant response rating ([14]; Rate 62 g/ha, Postemergence): 0 | Plant response rating, Redroot pigweed [14, 20]: 5 | Plant response rating, Velvetleaf [15, 17]: 0 | Plant response rating, Velvetleaf [15, 18]: 3 | Plant response rating, Velvetleaf [15, 19]: 1 | Velvetleaf plant response rating (0 to 10 scale) ([15]; Preemergence, Rate 125 g/ha): 5 | Velvetleaf plant response rating ([15]; Preemergence, Rate 250 g/ha): 6 | Velvetleaf plant response rating ([15]; Preemergence, Rate 500 g/ha): 7 | Velvetleaf plant response rating ([15]; Rate 62 g/ha, Postemergence): 0 | Plant response rating, Velvetleaf [15, 20]: 6 | Plant response rating, B. signalgrass [16, 17]: 0 | Plant response rating, B. signalgrass [16, 18]: 1 | Plant response rating, B. signalgrass [16, 19]: 3 | B. signalgrass plant response rating (0 to 10 scale, 0 is no effect, 10 is complete control) ([16]; Preemergence, Rate 125 g/ha): 3 | B. signalgrass plant response rating ([16]; Preemergence, Rate 250 g/ha): 5 | B. signalgrass plant response rating ([16]; Preemergence, Rate 500 g/ha): 6 | B. signalgrass plant response rating ([16]; Rate 62 g/ha, Postemergence): 0 | Plant response rating, B. signalgrass [16, 20]: 5
